Results published in PMC10942119, “S-nitrosylation of a receptor-like cytoplasmic kinase regulates plant immunity” (Science Advances, 2024).
Residue numbers refer to the chain shown, from its start.

Key:
BIK1 (MBP-BIK1) [1] = biological target: T1, BIK1 (MBP-BIK1) (Arabidopsis thaliana, UniProt O48814); assay: biotin switch; assay type: binding; settings: covalent; NO donor, S-nitrosylates cysteine; HEN buffer pH 7.7, 30 min, dark
T1 construct: coding region of BIK1, HisMBP-tagged (pDEST-HisMBP; a 6xHis version from pDEST17 was also made), tag kept, E. coli BL21(DE3)
T1 sequence (O48814 1-395): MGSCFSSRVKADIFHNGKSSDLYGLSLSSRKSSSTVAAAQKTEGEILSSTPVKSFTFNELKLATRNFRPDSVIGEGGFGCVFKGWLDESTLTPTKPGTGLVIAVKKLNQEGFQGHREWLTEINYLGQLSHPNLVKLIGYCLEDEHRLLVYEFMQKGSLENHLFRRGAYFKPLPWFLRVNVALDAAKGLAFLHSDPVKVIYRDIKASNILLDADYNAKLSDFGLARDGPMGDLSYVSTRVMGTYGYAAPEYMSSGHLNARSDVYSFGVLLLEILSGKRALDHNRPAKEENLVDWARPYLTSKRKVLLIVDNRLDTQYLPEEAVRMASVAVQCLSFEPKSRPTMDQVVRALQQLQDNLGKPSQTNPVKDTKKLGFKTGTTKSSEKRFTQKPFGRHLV

BIK1 (MBP-BIK1) [2] = biological target: T2, BIK1 (MBP-BIK1) (Arabidopsis thaliana, UniProt O48814, K105E); assay: biotin switch; assay type: binding; settings: covalent; NO donor (donor not named for this figure; GSNO in the same passage); kinase-dead mutant, GSNO gave no autophosphorylation
T2 construct: coding region of BIK1, HisMBP-tagged (pDEST-HisMBP; a 6xHis version from pDEST17 was also made), tag kept, E. coli BL21(DE3)
T2 sequence (O48814 1-395 K105E): T1 sequence (O48814 1-395) with K105E

BIK1 (MBP-BIK1) [3] = biological target: T1, BIK1 (MBP-BIK1); assay: biotin switch (anti-biotin Western blot); in vitro autophosphorylation assay; assay type: biochemical; settings: covalent; NO donor, S-nitrosylates cysteine, reversed by DTT; raises autophosphorylation; HEN buffer pH 7.7, 30 min, dark
[4] = biological target: T3, GSNO-pretreated MBP-BIK1 (S-nitrosylated BIK1, BIK1-SNO) (Arabidopsis (Col-0 cDNA), UniProt O48814 1-395, S-nitrosylation by GSNO pre-treatment; the paper assigns S-nitrosylation to Cys80); assay: pull-down; GST-RB-N on Glutathione Sepharose 4B incubated with MBP or MBP-BIK1 (untreated or pretreated with 10 uM GSNO or 100 uM DTT); 30 mM Hepes, 100 mM NaCl, 0.2% Triton X-100, pH 7.5; 4°C, 4 hours, dark; anti-MBP immunoblot; settings: both partners purified
T3 construct: botrytis-induced kinase 1 (BIK1), Arabidopsis; coding region amplified from Col-0 cDNA; same construct as m1; Same protein as m1 after treatment with the NO donor; which cysteines carried SNO in this sample was not determined in the pull-down itself
T3 sequence (looked up): T1 sequence (O48814 1-395)

[5] = biological target: T4, MBP-BIK1 (recombinant botrytis-induced kinase 1 fused to maltose binding protein) (Arabidopsis (Col-0 cDNA), UniProt O48814 1-395); assay: as above; settings: both partners purified
T4 construct: botrytis-induced kinase 1 (BIK1), Arabidopsis; coding region amplified from Col-0 cDNA; The text calls the protein in the pull-down pBIK1 as well; a phosphorylation state of the recombinant protein is not defined; also called recombinant BIK1; pDEST-HisMBP-BIK1; source: E. coli BL21(DE3), purified (amylose magnetic beads)
T4 sequence (looked up): T1 sequence (O48814 1-395)

In the case of `N[C@@H](CSN=O)C(=O)O` [Cys-NO], the biotin switch (BIK1 (MBP-BIK1) [1]) is reported as “The natural NO donor, Cys-NO, also S-nitrosylated BIK1 in vitro”.

In the case of `N[C@@H](CCC(=O)N[C@@H](CSN=O)C(=O)NCC(=O)O)C(=O)O` [GSNO], the biotin switch (BIK1 (MBP-BIK1) [2]) is reported as “NO induced S-nitrosylation of BIK1^K105E (fig. S6F)” and the “biotin switch (anti-biotin Western blot); in vitro autophosphorylation assay” value (BIK1 (MBP-BIK1) [3]) is reported as “BIK1 was S-nitrosylated in a concentration-dependent fashion by GSNO”.

B1: GST-RBOHD-N (GST-tagged N terminus of respiratory burst oxidase homolog D) (domain or fragment, Arabidopsis, UniProt Q9FIJ0 1-376, looked up)
chain: MKMRRGNSSNDHELGILRGANSDTNSDTESIASDRGAFSGPLGRPKRASKKNARFADDLPKRSNSVAGGRGDDDEYVEITLDIRDDSVAVHSVQQAAGGGGHLEDPELALLTKKTLESSLNNTTSLSFFRSTSSRIKNASRELRRVFSRRPSPAVRRFDRTSSAAIHALKGLKFIATKTAAWPAVDQRFDKLSADSNGLLLSAKFWECLGMNKESKDFADQLFRALARRNNVSGDAITKEQLRIFWEQISDESFDAKLQVFFDMVDKDEDGRVTEEEVAEIISLSASANKLSNIQKQAKEYAALIMEELDPDNAGFIMIENLEMLLLQAPNQSVRMGDSRILSQMLSQKLRPAKESNPLVRWSEKIKYFILDNWQR
notes: respiratory burst oxidase homolog D (RBOHD), Arabidopsis; 1128 bp make 376 codons; also called GST-RB-N; N-RBOHD; source: E. coli BL21(DE3), purified (Glutathione Sepharose 4B)
B1: binds [4]; binds [5].
